In US20200129523A1, “SHIP INHIBITION TO INDUCE EXPRESSION OF GRANULOCYTE COLONY STIMULATING FACTOR IN A SUBJECT” (THE RESEARCH FOUNDATION FOR THE STATE UNIVERSITY OF NEW YORK, priority 2014, published 2020):

Experiments:
HSC compartment = assay: Flow cytometric quantitation of hematopoietic stem/progenitor populations and cellularity in bone marrow of treated mice; format: in vivo, C57BL/6NTac mice; details: K118 10 mg/kg i.p. 5 days, vs H2O
Method: HSC phenotype, cell-cycle progression, G-CSF neutralization, and CXCR4 MFI determination by FACS analysis was performed on whole bone marrow (WBM) cells harvested from a tibia and femur pair obtained from SHIPi and vehicle treated 8-12 week old male C57BL/6NTac mice (Taconic). Generation of the CD45.1×CD45.2 strain utilized in the CRU assay were obtained by intercrossing C57BL6/J (CD45.2) and B6.SJL (CD45.1), as previously described.^5 The SUNY Upstate Medical University Committee for Humane Use of Animals approved all animal experiments.
In vivo administration of 3AC was previously described.^14 Briefly, 3AC is resuspended as an emulsion in 0.3% Klucel/H20. Mice were treated via intraperitoneal injection every 24 hrs for 5 days at a final concentration of 26.5 mg/kg. Analysis and transplants were performed on day 6. The 3AC derivative K118 (Soluble SHIPi) was suspended in pure H2O and heated at 100° C. for ˜15 min to allow the compound to enter solution. The delivery method was the same as with 3AC, however, the mice were treated for 5 days at a final concentration of 10 mg/kg. Vehicle cohorts for 3AC were treated with 0.3% Klucel/H20 and K118 were treated with pure H2O.
Cell isolation was performed according to method detailed in Hazen et al.^6 Briefly, WBM was flushed from both femurs and tibias per mouse with a 25-gauge needle, red blood cell lysed (eBioscience), and resuspended in staining media comprised of Hanks Buffered Saline Solution (HBSS), 2% heat inactivated fetal bovine serum (FBS), and 10 mM HEPES (Sigma). The cells harvested for the CRU assay were flushed, red blood cell lysed, washed, and resuspended in sterile phosphate buffered saline (PBS). Peripheral blood mononuclear cells (PBMC) were collected via submandibular bleed in EDTA Micorvette tubes (SARSTEDT).
All antibodies were from BD Biosciences or eBioscience. All WBM, PBMC and BM derived MSC cell populations were Fc blocked on ice for 10 min prior to antibody staining. Global reconstitution was determined by staining PBMC with CD45.1-PeCy7 and CD45.2-APC. Multi-lineage repopulation was determined by staining PBMC with CD3-FITC (145-2C11), CD19-PerCP5.5 (1D3), Mac1-PE (M1/70), Gr1-Alexa700 (RB6-8C5) and NK1.1-APC-Cy7 (PK136). The Lin−cKit+Sca1+CD34−Flk2− (LSKF34−) phenotype was utilized to determine frequency of LT-HSC, ST-HSC, and MPP; the stain was comprised of Lin-PerCP 5.5, cKit-APC (2B8), Sca1-PeCy7 (D7), CD34-FITC (RAM34), Flk2-PE (A2F10). LSKF-CXCR4 stain was used to determine surface expression of the homing marker CXCR4. All cells were washed twice with staining media, resuspended in staining media plus DAPI for dead cell exclusion, and then analyzed on a flow cytometer LSRII (BD Biosciences). All flow cytometry data was analyzed using FlowJo (9.4.3) software.

HSC = assay: CRU assay (competitive repopulating units), primary and secondary; format: in vivo, mice
Method: CD45.1^+45.2^+-recipient mice were given a split dose of 550 Rads (x-ray source, RS2000-RAD source technologies, inc.) 4 hours apart for a lethal total dose of 1100 Rads. WBM (5×10^5) cells from 3AC (CD45.2) treated mice were competed with WBM cells from vehicle (CD45.1) treated mice and injected retro-orbitally into CD45.1^+45.2^+ hosts. PBMC multi-lineage reconstitution was evaluated every month post-transplant for 4 months. Transplanted mice were euthanized and serially transplanted to determine self-renewal capacity. Repopulating Units (RU) determination was previously decribed.^15 Briefly, RU=(C×CD45.2 repopulation %)/(100−CD45.2 repopulation %) where C=10^5 competitor cells.^6
Normal Repopulating units (RU) are calculated based on total number of competitor cells transplanted. Due to the expansion in the bone marrow compartment of SHIPi treated mice, we calculated the absolute RU numbers based on RU output determined by CRU assay and total BM cellularity. Total BM cellularity was determined via hemacytometer (BioRAD, TC20 cell counter) based on a total BM cells obtained from an intact set of femurs and tibias for each mouse in the study. Absolute RU=(Total BM cellularity/5×10^5)×RU.

Compound: C[C@@]12CCC[C@H]1[C@@H]1CC[C@H]3C[C@@H](N)CC[C@]3(C)[C@H]1CC2.Cl [K118, 3β-amino-5α-androstane hydrochloride]
- BM cellularity (HSC compartment): significant increase
- LT-HSC in BM (HSC compartment): significant increases
- MPP in BM (HSC compartment): significant increases
- ST-HSC in BM (HSC compartment): significant increases
- absolute CRU numbers (HSC; K118 treated vs H2O treated donors): significant increase
- CRU activity (HSC; primary CRU, WBM of K118 treated vs H2O treated mice): significant increase
